{
  "source": "patent US4839374A",
  "about": "“4-((Bicyclic heterocyclyl)-methyl and -hetero)-piperidines” (Janssen Pharmaceutica, N.V., priority 1987, dated 1989)",
  "key": {"effects of serotonin [1]": {"system": "effects of serotonin", "settings": "rats, compound 48/80; known serotonin-antagonists; cited from earlier work"}, "[2]": {"system": "compound 48/80-induced lethality", "assay": "Protection of rats from compound 48/80-induced lethality", "type": "in vivo, rats of an inbred Wistar strain", "settings": "Rattus norvegicus, 4 h, read-out: Compound 48/80 lethality test in rats ED50, s.c. or p.o. 1 h before compound 48/80 0.5 mg/kg i.v.; protection of 50% of animals, survival after 4 hours", "summary_of_the_method": "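Male inbred Wistar rats (240-260 g), starved overnight, dosed subcutaneously or orally with compound or 0.9% NaCl before compound 48/80 challenge. Survival at 4 hours counted as protection. ED50 in mg/kg is the dose protecting 50% of animals from lethality.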"}, "effects of serotonin [3]": {"system": "effects of serotonin", "assay": "Antagonistic activity on the effects of serotonin in the gastric lesion test (lesions induced by compound 48/80)", "type": "in vivo, rats of a Wistar inbred strain", "settings": "Rattus norvegicus, po, read-out: gastric lesion test ED50", "summary_of_the_method": "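Fasted male Wistar rats (220–250 g) dosed orally with compound; 1 h later 2.5 mg/kg s.c. H1 antagonist, then compound 48/80 i.v. Stomachs examined 4 h afterwards for distension and glandular lesions (scored 0 to +++); ED50 is the oral dose (mg/kg) abolishing both in 50% of rats.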"}, "[4]": {"settings": "compound 48/80 1 mg/kg i.v., distension and lesions of stomach completely absent in 50% of rats"}},
  "note": "Where two headings read alike, the source gives them in different places.",
  "data": [
    {"smiles": "CN1CCC(=C2c3ccccc3C=Cc3ccccc32)CC1", "note": "[cyproheptadine]", "values": [
      {"measurement": "prevention of cyanosis of ears and extremities, lesions in the glandular area of the stomach and abnormal gastric distension", "setting": "effects of serotonin [1]", "result": "prevent completely"}
    ]},
    {"smiles": "CC[C@@H](CO)NC(=O)[C@@H]1C=C2c3cccc4c3c(cn4C)C[C@H]2N(C)C1", "note": "[methysergide]", "values": [
      {"measurement": "prevention of cyanosis of ears and extremities, lesions in the glandular area of the stomach and abnormal gastric distension", "setting": "effects of serotonin [1]", "result": "prevent completely"}
    ]},
    {"smiles": "NC(=O)C1(N2CCCCC2)CCN(CCCC(=O)c2ccc(F)cc2)CC1", "note": "[pipamperone]", "values": [
      {"measurement": "prevention of cyanosis of ears and extremities, lesions in the glandular area of the stomach and abnormal gastric distension", "setting": "effects of serotonin [1]", "result": "prevent completely"}
    ]},
    {"smiles": "CN1CCC(=C2c3ccccc3CCc3sccc32)CC1", "note": "[pizotifen]", "values": [
      {"measurement": "prevention of cyanosis of ears and extremities, lesions in the glandular area of the stomach and abnormal gastric distension", "setting": "effects of serotonin [1]", "result": "prevent completely"}
    ]},
    {"smiles": "CN1C[C@H](CNC(=O)OCc2ccccc2)C[C@@H]2c3cccc4c3c(cn4C)C[C@H]21", "note": "[metergoline]", "values": [
      {"measurement": "prevention of cyanosis of ears and extremities, lesions in the glandular area of the stomach and abnormal gastric distension", "setting": "effects of serotonin [1]", "result": "prevent completely"}
    ]},
    {"smiles": "CN1CCN2c3ccccc3Cc3ccccc3C2C1", "note": "(centres unmarked) [mianserin]", "values": [
      {"measurement": "prevention of cyanosis of ears and extremities, lesions in the glandular area of the stomach and abnormal gastric distension", "setting": "effects of serotonin [1]", "result": "prevent completely"}
    ]},
    {"smiles": "O=C(CCCN1CCC2(CC1)C(=O)NCN2c1ccccc1)c1ccc(F)cc1", "note": "[spiperone]", "values": [
      {"measurement": "prevention of cyanosis of ears and extremities, lesions in the glandular area of the stomach and abnormal gastric distension", "setting": "effects of serotonin [1]", "result": "prevent completely"}
    ]},
    {"smiles": "CN(C)CCCSc1ccccc1NC(=O)/C=C/c1ccccc1", "note": "[cinanserin]", "values": [
      {"measurement": "prevention of cyanosis of ears and extremities, lesions in the glandular area of the stomach and abnormal gastric distension", "setting": "effects of serotonin [1]", "result": "prevent completely"}
    ]},
    {"smiles": "O=c1[nH]c2ccccc2c(=O)n1CCCCN1CCC(Cc2nc3ccccc3n2Cc2ccc(F)cc2)CC1", "note": "[Compound 489, 3-[4-[4-[[1-[(4-fluorophenyl)methyl]-1H-benzimidazol-2-yl]methyl]-1-piperidinyl]butyl]-2,4(1H,3H)-quinazolinedione]", "values": [
      {"measurement": "ED50", "setting": "[2]", "result": 0.08, "unit": "mg/kg"},
      {"measurement": "ED50", "setting": "effects of serotonin [3]; [4]", "result": 0.63, "unit": "mg/kg"}
    ]},
    {"smiles": "Cc1cc(Cl)nc(NCCN2CCC(Cc3nc4ccccc4n3Cc3ccc(F)cc3)CC2)n1", "note": "[Compound 382, 4-chloro-N-[2-[4-[[1-[(4-fluorophenyl)methyl]-1H-benzimidazol-2-yl]methyl]-1-piperidinyl]ethyl]-6-methyl-2-pyrimidinamine]", "values": [
      {"measurement": "ED50", "setting": "[2]", "result": 0.08, "unit": "mg/kg"},
      {"measurement": "ED50", "setting": "effects of serotonin [3]; [4]", "result": 0.63, "unit": "mg/kg"}
    ]},
    {"smiles": "COc1ccc(CCN2CCC(Cc3nc4ccccc4n3Cc3ccoc3)CC2)cc1", "note": "[Compound 260]", "values": [
      {"measurement": "ED50", "setting": "[2]", "result": 0.01, "unit": "mg/kg"},
      {"measurement": "ED50", "setting": "effects of serotonin [3]; [4]", "result": 0.63, "unit": "mg/kg"}
    ]},
    {"smiles": "Fc1ccc(Cn2c(CC3CCN(CCN4CCOCC4)CC3)nc3ccccc32)cc1", "note": "[Compound 131]", "values": [
      {"measurement": "ED50", "setting": "[2]", "result": 0.02, "unit": "mg/kg"},
      {"measurement": "ED50", "setting": "effects of serotonin [3]; [4]", "result": 0.16, "unit": "mg/kg"}
    ]},
    {"smiles": "CC(C)NC(=O)CCN1CCC(Cc2nc3cccnc3n2Cc2ccc(F)cc2)CC1", "note": "[Compound 143, 4-[[3-[(4-fluorophenyl)methyl]-3H-imidazo[4,5-b]pyridin-2-yl]methyl]-N-(1-methylethyl)-1-piperidinepropanamide]", "values": [
      {"measurement": "ED50", "setting": "[2]", "result": 0.04, "unit": "mg/kg"},
      {"measurement": "ED50", "setting": "effects of serotonin [3]; [4]", "result": 0.63, "unit": "mg/kg"}
    ]},
    {"smiles": "CCNC(=O)NCCN1CCC(Cc2nc3ccccc3n2Cc2ccc(F)cc2)CC1", "note": "[Compound 430, N-ethyl-N'-[2-[4-[[1-[(4-fluorophenyl)methyl]-1H-benzimidazol-2-yl]methyl]-1-piperidinyl]ethyl]urea]", "values": [
      {"measurement": "ED50", "setting": "[2]", "result": 0.01, "unit": "mg/kg"},
      {"measurement": "ED50", "setting": "effects of serotonin [3]; [4]", "result": 0.005, "unit": "mg/kg"}
    ]},
    {"smiles": "Cc1nc2n(c(=O)c1CCN1CCC(Cc3nc4ccccc4n3Cc3ccco3)CC1)CCCC2", "note": "[Compound 226]", "values": [
      {"measurement": "ED50", "setting": "[2]", "result": 0.08, "unit": "mg/kg"},
      {"measurement": "ED50", "setting": "effects of serotonin [3]", "result": 0.04, "unit": "mg/kg"}
    ]},
    {"smiles": "OCCN1CCC(Cc2nc3ccccc3n2Cc2ccc(F)cc2)CC1", "note": "[Compound 107, 4-[[1-[(4-fluorophenyl)methyl]-1H-benzimidazol-2-yl]methyl]-1-piperidineethanol]", "values": [
      {"measurement": "ED50", "setting": "[2]", "result": 0.04, "unit": "mg/kg"},
      {"measurement": "ED50", "setting": "effects of serotonin [3]", "result": 0.08, "unit": "mg/kg"}
    ]},
    {"smiles": "Fc1ccc(Cn2c(CC3CCN(CCNc4ncccn4)CC3)nc3cccnc32)cc1", "note": "[Compound 376, N-[2-[4-[[3-[(4-fluorophenyl)methyl]-3H-imidazo[4,5-b]pyridin-2-yl]methyl]-1-piperidinyl]ethyl]-2-pyrimidinamine]", "values": [
      {"measurement": "ED50", "setting": "[2]", "result": 0.02, "unit": "mg/kg"},
      {"measurement": "ED50", "setting": "effects of serotonin [3]; [4]", "result": 0.63, "unit": "mg/kg"}
    ]},
    {"smiles": "Fc1ccc(Cn2c(CC3CCN(CCc4ccccn4)CC3)nc3ccccc32)cc1", "note": "[Compound 103, 1-[(4-fluorophenyl)methyl]-2-[[1-[2-(2-pyridinyl)ethyl]-4-piperidinyl]-methyl]-1H-benzimidazole]", "values": [
      {"measurement": "ED50", "setting": "[2]", "result": 0.005, "unit": "mg/kg"},
      {"measurement": "ED50", "setting": "effects of serotonin [3]; [4]", "result": 0.16, "unit": "mg/kg"}
    ]},
    {"smiles": "Cc1nc2n(c(=O)c1CCN1CCC(Oc3nc4ccccc4n3Cc3ccc(F)cc3)CC1)CCCC2", "note": "[Compound 264]", "values": [
      {"measurement": "ED50", "setting": "[2]", "result": 0.04, "unit": "mg/kg"},
      {"measurement": "ED50", "setting": "effects of serotonin [3]; [4]", "result": 0.63, "unit": "mg/kg"}
    ]},
    {"smiles": "Fc1ccc(Cn2c(CC3CCN(CCNc4nccs4)CC3)nc3cccnc32)cc1", "note": "[Compound 357]", "values": [
      {"measurement": "ED50", "setting": "[2]", "result": 0.02, "unit": "mg/kg"},
      {"measurement": "ED50", "setting": "effects of serotonin [3]; [4]", "result": 0.63, "unit": "mg/kg"}
    ]},
    {"smiles": "Nc1ccccc1C(=O)NCCN1CCC(Cc2nc3ccncc3n2Cc2ccc(F)cc2)CC1", "note": "[Compound 477, 2-amino-N-[2-[4-[[3-[(4-fluorophenyl)methyl]-3H-imidazo[4,5-c]pyridin-2-yl]-methyl]-1-piperidinyl]-ethyl]benzamide]", "values": [
      {"measurement": "ED50", "setting": "[2]", "result": 0.02, "unit": "mg/kg"},
      {"measurement": "ED50", "setting": "effects of serotonin [3]; [4]", "result": 0.63, "unit": "mg/kg"}
    ]},
    {"smiles": "Cc1csc(NCCN2CCC(Cc3nc4ccccc4n3Cc3ccc(F)cc3)CC2)n1", "note": "[Compound 456, 4-[(1-[(4-fluorophenyl)methyl]-1H-benzimidazol-2-yl]methyl]-N-(4-methyl-2-thiazolyl)-1-piperidineethanamine]", "values": [
      {"measurement": "ED50", "setting": "[2]", "result": 0.01, "unit": "mg/kg"},
      {"measurement": "ED50", "setting": "effects of serotonin [3]; [4]", "result": 0.63, "unit": "mg/kg"}
    ]},
    {"smiles": "c1cnc(NCCN2CCC(Cc3nc4ccccc4n3Cc3ccco3)CC2)nc1", "note": "[Compound 334]", "values": [
      {"measurement": "ED50", "setting": "[2]", "result": 0.005, "unit": "mg/kg"},
      {"measurement": "ED50", "setting": "effects of serotonin [3]; [4]", "result": 0.31, "unit": "mg/kg"}
    ]}
  ]
}
